In brackets after ≈: the same amount, converted by molar mass.
What was measured:
[1] = tested on: P. falciparum (NF54 strain, clone A149); assay: In vitro 3H-hypoxanthine incorporation test with P. falciparum NF 54; format: cell-based, Plasmodium falciparum; details: NF 54, clone A149; six repeats; max. concentration 50 or 5 μg/ml
Description: Continuous in vitro cultures of asexual erythrocytic stages of P. falciparum (strain NF 54/64, clone A1A9) were maintained following essentially the method of Trager and Jensen (Science, 193, 673-675, 1976) at 37° C. under an atmosphere of 5% CO2, 5% O2, and 90% N2. The host cells were human erythrocytes (A or O Rh+). The culture medium was RPMI 1640 (Gibco), containing HEPES (BDH; 4.57 gL^−1), glucose (Sigma; 1.54 gL^−1), 5% NaHCO3 (Merck; 34.78 mlL^−1), and gentamycin (Merck; 8.70 mlL^−1) supplemented with 10% human plasma (A Rh+). Parasites were subinoculated every 3-4 days with initial conditions of 1% parasitemia and 1% hematocrit.
(§1) In vitro testing with P. falciparum was as follows. Each compound was dissolved in DMSO at a concentration of 20 mg ml^−1. These solutions were further diluted with physiological saline to obtain a stock solution of 500 μg ml^−1. Each test substance was applied in a series of seven, 4-fold dilutions (maximum concentrations 50 or 5 μg ml^−1). Each compound was tested in 6-fold repeats. Chloroquine was tested similarly, as a positive control.
(§2) The test protocol was performed in vitro, based upon the method of Desjardins, et al. (Antimicrobial Agents Chemother., 16, 710-715, 1979). The parasites (200 μl of a suspension with initial parasitemia of 0.5% and hematocrit of 1.5%) were incubated for 24 h in microtitre plates (Falcon MicroTest III) in hypoxanthine-free medium in the presence of 25 μl of test solution. The plates contained a negative control (6 wells with non-parasitized RBC's, no drug) and a positive control (6 wells with parasitized RBC's no drug). Thereafter, 25 μl of ^3H-hypoxanthine solution (Amersham) was added (0.5 μCi well ^−1), and the parasites were incubated for a further period of 18 h. Each well was harvested with a Cell Harvester (Nunc). The filter papers were dried for 2 h at 52° C., and their radioactivity was measured by liquid scintillation counting in Optiscint HiSafe (LKB Pharmacia).
(§3) The mean results, obtained as counts per min (cpm), were expressed as percentages of incorporation or growth inhibition. The sigmoid dose-response curve was then linearized by probit analysis with the aid of software provided by IWONL (Gent), adapted by G. Timperman and used to derive the IC50 values.

[2] = tested on: P. falciparum (K1 strain); assay: In vitro 3H-hypoxanthine incorporation test with chloroquine-resistant P. falciparum K1; format: cell-based, Plasmodium falciparum
Description: Selected compounds were also tested against drug-resistant parasites. The method was the same as above except for the following modifications. The parasite used was the chloroquine-resistant strain, K1, maintained essentially according to Desjardins, et al. (supra, 1979). The culture medium was RPMI-1640 containing TES (Sigma; 7.64 gL^−1), glucose (BDH; 1.67 gL^−1), NaHCO3 (BDH; 1.94 gL^−1), and gentamycin (Nicholas; 30 mgL^−1) supplemented with 10% human serum (A RH+). Parasites were subinoculated every 3-4 days with initial conditions of 1% parasitemia and 2.5% hematocrit. For the testing, small aliquots of test material were dissolved in 20 μl EtOH and RPMI 1640 to give solutions of 1 or 10 mg ml^−1. Each was applied in a series of twelve, […] dilutions (final […] ranging from 50 to 1.19×10^−3 μg ml^−1). Chloroquine diphosphate (Sigma) was used in the same experiments as a reference and also in twelve, 4-fold dilutions (final concentrations 2×10^−5-1.19×10^−12M). Each compound was tested in duplicate.
Testing was performed in vitro based upon the method of Desjardins, et al (supra, 1979), as modified by O'Neill, et al. (Planta Med., 51, 394-399, 1985) and Ekong, et al. (Biochem. Pharmacol., 40, 297-301, 1990). The parasites (50 μl initial parasitemia of 1%, hematocrit of 5%) were incubated for 24 h in microtitre plates (Nunc) in normal (not hypoxanthine-depleted) medium in the presence of 50 μl of test solution. Controls were set up in each test by preparing 12-24 wells with non-parasitized RBC's and no test solution and 12-24 wells with parasitized RBC's and no test compound. Thereafter, 5 μl all of ^3H-hypoxanthine (Amersham) were added (0.2 μCi well ^−1), and the parasites incubated for a further period of 18 h. Each well was harvested with a Cell Harvester (Skatron). Glass fibre filters were dried briefly. Radioactivity was measured by liquid scintillation counting in Ecoscint (National Diagnostics).
The results obtained as cpm were expressed as percentages of incorporation of growth inhibition. The dose-related part of the sigmoidal curves obtained were linearized by regression analysis with the aid of software developed by S. Grant (I.SHTM) and used to calculate the IC50 values.

P. berghei (Anka) = assay: In vitro 3H-hypoxanthine incorporation test with P. berghei (Anka); format: cell-based, Plasmodium berghei; details: Anka strain
Description: as §1, §2, §3
For experiments with P. berghei (Anka strain), the parasites were maintained, and the in vitro tests performed essentially the same as above, except for the following modification. In the case of tests using P. berghei, the parasites were incubated in the same conditions as for P. falciparum (above) except that the incubations were started immediately in the presence of the ^3H-hypoxanthine and for 24 hour total duration (i.e., no delay in the addition of the ^3H-hypoxanthine). As before, the incorporated radioactivity was used as a-measure for parasite growth.

[3] = tested on: Plasmodium berghei (Anka strain); assay: In vivo antimalarial test in OF1 mice inoculated with P. berghei; details: 50 mg/kg oral on days 0, 1, 2, 3, OF1 mice; for Parasitemia (%) from blood smears at day 4: N=6
Description: Outbred, female, six-week-old OF1 mice (six mice per group treated and nontreated [control]) were inoculated intraperitoneally on day 0 with 10^6 P. berghei (Anka strain) blood forms. Two hours later, they were administered orally 50 mg/kg of dioncopeltine A or dioncophylline B. A second, third, and fourth treatment (50 mg/kg each) was given after 24, 48 and 72 h, respectively (days 1, 2, and 3). […] The parasitemia (%) in the control (not drug-treated) group was 3.50 (range 3.02-3.97; N=6). In the dioncopeltine A treated group, the parasitemia was 0.03 (range 0.01-0.06; N=6); in the dioncophylline B treated group, the parasitemia was […] (range 0.66-3.07; N=6).
The in vivo antimalarial testing was performed as described above, except that more doses and different treatment schedules were employed, as described in Tables 3 and 4.

Row | Structure (SMILES) | IC50 P. falciparum NF54 strain [1] | IC50 P. falciparum, K1 strain [2] | IC50 P. berghei, Anka (P. berghei (Anka)) | Parasitemia (%) from blood smears at day 4 [3] | Signs of toxicity or other side effects [3]
1 | COc1cc(C)cc2ccc(-c3ccc4c(c3O)[C@@H](C)N[C@H](C)C4)c(O)c12 [Dioncophylline B] | 0.224 µg/mL (≈ 0.616 µM) | 0.063 µg/mL (≈ 0.173 µM) | 0.228 µg/mL (≈ 0.627 µM) | 1.86% | 
2 | COc1cc(CO)c(-c2ccc3c(c2O)[C@@H](C)N[C@H](C)C3)c2cccc(O)c12 [Dioncopeltine A] | 0.021 µg/mL (≈ 0.0553 µM) | 0.330 µg/mL (≈ 0.87 µM) | 0.038 µg/mL (≈ 0.1 µM) | 0.03% | In neither of the treated groups were any signs of toxicity or other side effects observed

— US6627641B1, “Antimalarial naphthylisoquinoline alkaloids and pharmaceutical compositions and medical uses thereof” (The United States of America as represented by the …, priority 1994, dated 2003)
